{"source": "patent EP1169336B1", "about": "“ENT-STEROIDS AS SELECTIVELY ACTIVE ESTROGENS” (Schering Aktiengesellschaft, priority 1999, dated 2000)", "key": {"[1]": {"conditions": "reported, source not given; cited from earlier work"}, "[2]": {"conditions": "Endocrinology 63, 464 (1958); cited from earlier work"}, "[3]": {"system": "Rat uterus ER", "experiment": "Estrogen receptor binding study, competition with 3H-estradiol, rat uterus cytosol", "conditions": "3H-estradiol as ligand, estradiol = 100"}, "[4]": {"biological_target": "human estrogen receptor α (ERα) (Homo sapiens, UniProt P03372)", "sequence (P03372 whole entry)": "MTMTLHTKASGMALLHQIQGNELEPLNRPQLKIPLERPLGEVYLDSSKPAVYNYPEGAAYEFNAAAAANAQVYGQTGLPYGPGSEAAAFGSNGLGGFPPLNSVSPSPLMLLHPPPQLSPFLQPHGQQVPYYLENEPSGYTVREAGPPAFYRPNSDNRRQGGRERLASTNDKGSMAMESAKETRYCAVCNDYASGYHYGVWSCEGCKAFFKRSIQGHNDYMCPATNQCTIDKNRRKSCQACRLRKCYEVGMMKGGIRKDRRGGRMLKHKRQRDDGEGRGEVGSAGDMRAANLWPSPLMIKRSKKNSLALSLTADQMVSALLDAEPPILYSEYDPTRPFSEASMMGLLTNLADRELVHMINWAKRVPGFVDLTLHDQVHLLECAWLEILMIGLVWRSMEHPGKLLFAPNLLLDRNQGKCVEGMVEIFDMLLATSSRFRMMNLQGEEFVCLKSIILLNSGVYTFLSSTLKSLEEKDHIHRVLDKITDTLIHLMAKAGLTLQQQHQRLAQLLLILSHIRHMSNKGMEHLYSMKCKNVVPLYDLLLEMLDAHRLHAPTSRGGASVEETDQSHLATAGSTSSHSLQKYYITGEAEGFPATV", "conditions": "cited from earlier work"}, "[5]": {"system": "hERβ", "type": "binding, human", "conditions": "for ERβ/ ER: quotient of RBA to hERβ and hER"}, "[6]": {"system": "hERβ", "conditions": "cited from earlier work"}, "[7]": {"system": "Rat prost. ER", "experiment": "Estrogen receptor binding study, competition with 3H-estradiol, rat prostate cytosol"}, "[8]": {"conditions": "enantio form; J. Med. Chem. 10, 199-204 1967; cited from earlier work"}}, "note": "Where two headings read alike, the source gives them in different places.", "data": [{"smiles": "C[C@@]12CC[C@H]3c4ccc(O)cc4CC[C@H]3[C@H]1CC[C@H]2O", "note": "(single isomer, unassigned) [ent-8α-estradiol]", "values": [{"measurement": "antilipemic activity", "setting": "[1]", "value": "antilipemic activity in the case of no feminization"}]}, {"smiles": "CC[C@@]12CC[C@@H]3[C@H](CCC4=CC(=O)CC[C@H]43)[C@H]1CC[C@]2(O)C#CCl", "note": "(single isomer, unassigned) [ent-17α-chloroethinyl-17β-hydroxy-18a-homo-estr-4-en-3-one]", "values": [{"measurement": "Clauberg Test", "setting": "[2]", "value": "ineffective"}]}, {"smiles": "C[C@]12CC[C@H]3[C@@H](CC=C4C[C@@H](O)CC[C@@]43C)[C@@H]1CC[C@@H]2O", "note": "[5-Andro-stene-diol, 5-Androstenediol]", "values": [{"measurement": "Rat uterus ER(RBA)", "setting": "[3]", "value": 0.1}, {"measurement": "hER RBA*", "setting": "[4]", "value": 6}, {"measurement": "ERβ/ ER", "setting": "[5]", "value": 3}, {"measurement": "hERβ RBA*", "setting": "[6]", "value": 17}, {"measurement": "Rat prost. ER(RBA)", "setting": "[7]; 3H-estradiol as ligand, prostate cytosol, estradiol = 100", "value": 5}, {"measurement": "prost. ER/uterus ER", "setting": "[7]; ratio of binding to prostate and uterus receptor", "value": 50}]}, {"smiles": "C[C@]12CC[C@@H]3c4ccc(O)cc4CC[C@H]3[C@@H]1C[C@@H](O)C2=O", "note": "[16α-hydroxyestrone]", "values": [{"measurement": "binding to the human estrogen receptor β (ERβ) compared with the human estrogen receptor α (ERα)", "setting": "[5]; some studies", "value": "three times better"}, {"measurement": "RBA value on the rat prostate estrogen receptor compared with the RBA value on the rat uterus estrogen receptor", "setting": "[7]; some studies", "value": "five times better"}]}, {"smiles": "C#C[C@@]1(O)CC[C@@H]2[C@H]3CCc4cc(O)ccc4[C@@H]3CC[C@]21C", "note": "[17α-Ethinylestradiol]", "values": [{"measurement": "estrogeneity, relative to estrone", "setting": "[8]", "value": "less than 5%"}]}, {"smiles": "C[C@]12CC[C@@H]3c4ccc(O)cc4CC[C@H]3[C@@H]1C[C@@H](O)[C@@H]2O", "note": "[Estriol]", "values": [{"measurement": "ERβ/ ER", "setting": "[5]", "value": 1.5}, {"measurement": "hERβ RBA*", "setting": "[6]; relative binding affinity, estradiol = 100", "value": 21}]}, {"smiles": "O=c1c(-c2ccc(O)cc2)coc2cc(O)cc(O)c12", "note": "[Geni-steine, Genisteine]", "values": [{"measurement": "ERβ/ ER", "setting": "[5]", "value": 7}]}]}
